Laboratory results as given in US6685932B1, “Coiled-coil dimer derived antagonists of 4-helix bundle cytokines, design and uses thereof” (Europaisches Laboratorium Molekularbiologie, priority 1997, dated 2004).
Where two headings read alike, the source gives them in different places. Positions of bridges follow the written chain, without caps; N, C: chain ends. Chains are numbered I, II in the order given.

Columns and labels:
[1] = target: T1, IL-4Rα (extracellular domain, IL4BP) (Homo sapiens, UniProt P24394, Q231C); experiment: biosensor-based binding experiments (BIA2000 system) on immobilised IL-4 binding protein
T1 sequence (P24394 26-232 Q231C): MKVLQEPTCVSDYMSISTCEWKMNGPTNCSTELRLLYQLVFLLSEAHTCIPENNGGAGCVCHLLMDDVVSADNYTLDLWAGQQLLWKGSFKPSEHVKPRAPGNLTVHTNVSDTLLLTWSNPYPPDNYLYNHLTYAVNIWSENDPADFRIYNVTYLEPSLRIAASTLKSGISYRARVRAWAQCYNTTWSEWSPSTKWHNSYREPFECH
Text: All the peptides were synthesized by solid phase methods, aminated on the C-terminus and acetylated on the N-terminus. The activity of the peptides was investigated by biosensor-based binding experiments using the BIA2000 system (Pharmacia Biosensor), at room temperature. […] An extensive study of the role of disulfide bridges in the stability of coiled-coil structures and proteins in general is available in the literature (86-88).

[2] = temperature-induced denaturation followed by Circular Dichroism; format: physicochemical; conditions: for stability / midpoint transition temperature (Tm), in words: CD at 222 nm
Text: Upon fitting the experimental data, the midpoint transition temperature (Tm) can be obtained.

With “Ac-RMKQLEKKVERLLKRNYRLEWEVIRLKKLVG-NH2 [MAR-IL-4]” the Kd [1] was 26 µM, the “stability / midpoint transition temperature (Tm), in words” value [2] was “cooperative temperature induced transition characteristic of a folded protein” and the “temperature at which the peptide starts losing its structure” value ([2]; low peptide concentrations used to measure binding) was 25 °C.

In the case of “I: Ac-RMKQLEKKVERCLKRLYRNEWEVIRLKKLVG-NH2 / II: Ac-RMKQLEKKVERCLKRLYRNEWEVIRLKKLVG-NH2 (disulfide I:12-II:12) [Model 12CNMAR-IL4]”, the “binding affinity relative to parent peptide” value ([1]; relative to peptide bearing cysteine at position 12) is reported as “binding affinity is not affected” and the “stability / midpoint transition temperature (Tm), in words” value [2] is reported as “significant drop in the stability”.

For “I: Ac-RMKQLEKKVERCLKRNYRLEWEVIRLKKLVG-NH2 / II: Ac-RMKQLEKKVERCLKRNYRLEWEVIRLKKLVG-NH2 (disulfide I:12-II:12) [Model 12CMAR-IL4]”, the “increase in the binding affinity to IL-4Rα” value ([1]; relative to MAR-IL4) was 5 fold.

“RMKQLEDKVEELLSKNYRLENRVARLEKLVG [Model 1]” gave a Kd ([1]; room temperature (25° C.), immobilised biotinylated IL4BP) of 105597.
